Assay results reported in patent publication US4820834A, “Benzodiazepine analogs” (priority 1987, dated 1989).
Like-named read-outs stand apart in the source and are kept apart here.

Legend:
[1] = biological target: T1, CCK receptor (brain, cerebral cortex) (Cavia porcellus, UniProt H0VZC5); assay: biochemical; type: binding, Male Hartley guinea pigs; settings: guinea pig cerebral cortex, ^125 I-CCK-33, 25° C., 2 hours
T1 construct: Cerebral cortex was dissected and used as a receptor source; from tissue; host or cells: guinea pig cerebral cortex membranes (male Hartley)
T1 sequence (H0VZC5 1-426): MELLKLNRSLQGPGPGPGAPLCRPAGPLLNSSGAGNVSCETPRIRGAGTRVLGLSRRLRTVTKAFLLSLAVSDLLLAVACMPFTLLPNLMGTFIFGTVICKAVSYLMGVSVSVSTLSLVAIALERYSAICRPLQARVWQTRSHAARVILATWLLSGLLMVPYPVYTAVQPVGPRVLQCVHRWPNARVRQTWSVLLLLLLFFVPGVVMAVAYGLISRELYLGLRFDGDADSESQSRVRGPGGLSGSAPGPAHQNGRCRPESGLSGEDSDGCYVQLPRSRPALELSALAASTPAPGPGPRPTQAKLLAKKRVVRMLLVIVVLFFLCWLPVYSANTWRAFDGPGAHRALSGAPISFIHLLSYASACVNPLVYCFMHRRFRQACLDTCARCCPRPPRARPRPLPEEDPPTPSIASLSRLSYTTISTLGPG
Outline: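 Binding of [radiolabeled] CCK-33 measured by gamma counting of centrifuged pellets after 2 h at 25°C. Membranes came from guinea pig brain cortex, suspended in 10 mM HEPES, 5 mM MgCl2, 1 mM EGTA, 0.25 mg/ml bacitracin, 0.4% BSA.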

CCK receptor (pancreas) = biological target: T2, CCK receptor (pancreas) (Rattus norvegicus, UniProt P30551); assay: CCK Receptor Binding (Pancreas): inhibition of ^125 I-CCK-33 binding; design: species or system Male Sprague-Dawley rats; settings: rat pancreas membranes, ^125 I-CCK-33, 37° C., 30 minutes
T2 construct: The whole pancreas was dissected free of fat tissue and was homogenized; from tissue; host or cells: rat pancreas membranes (Sprague-Dawley)
T2 sequence (P30551 1-444): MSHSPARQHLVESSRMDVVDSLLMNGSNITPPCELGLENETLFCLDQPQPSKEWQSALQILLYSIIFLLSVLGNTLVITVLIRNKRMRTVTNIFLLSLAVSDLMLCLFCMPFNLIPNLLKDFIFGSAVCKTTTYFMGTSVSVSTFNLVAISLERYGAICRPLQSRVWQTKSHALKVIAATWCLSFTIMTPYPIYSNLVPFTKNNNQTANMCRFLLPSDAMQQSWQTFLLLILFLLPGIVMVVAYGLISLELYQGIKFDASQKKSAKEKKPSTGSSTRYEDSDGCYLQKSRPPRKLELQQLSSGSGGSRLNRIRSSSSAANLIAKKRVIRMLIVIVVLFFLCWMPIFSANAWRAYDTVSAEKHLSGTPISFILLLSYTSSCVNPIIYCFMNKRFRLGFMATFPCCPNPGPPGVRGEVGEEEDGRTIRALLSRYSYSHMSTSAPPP
Outline: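 Bound ^125I-CCK-33 was counted in pellets after a 30 min, 37° C incubation followed by centrifugation. Membranes came from male Sprague-Dawley rat pancreas, assayed in Tris HCl pH 7.7 containing DTT, bacitracin, PMSF and o-phenanthroline. For Scatchard analysis, tracer was diluted with rising unlabelled CCK-33.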

[2] = biological target: T3, Gastrin receptor (gastric glands) (Cavia porcellus, UniProt H0VZC5); assay: Gastrin Receptor Binding in Guinea Pig Gastric Glands; design: species or system guinea pig (male Hartley); settings: 25° C., 30 minutes
T3 construct: The washed guinea pig gastric glands prepared as above were resuspended; from tissue; host or cells: guinea pig gastric mucosal glands (male Hartley)
T3 sequence (H0VZC5 1-426): T1 sequence (H0VZC5 1-426)

[3] = read-out: IC50 ^125 I-CCK Brain
[4] = read-out: IC50 ^125 I-CCK Pancreas
[5] = ^125 I-gastrin, read-out: IC50 ^125 I-Gastrin Gastric Glands
[6] = IC50 ^125 I-Gastrin Gastric Glands

In the case of `CN1C(=O)C(NC(=O)Nc2ccc([N+](=O)[O-])cc2)N=C(c2ccccc2)c2ccccc21` (stereo not drawn) [Example 256, N-(4-Nitrophenyl)-N'-(2,3-dihydro-1-methyl-2-oxo-5-phenyl-1H-1,4-benzodiazepin-3-yl)-urea], the IC50 [1, 3] is reported as 46 nM, the IC50 (CCK receptor (pancreas); [4]) is reported as 210 nM and the IC50 [2, 5] is reported as 9.8 nM.
In the case of `CN1C(=O)C(NC(=O)Nc2ccc(Cl)c(Cl)c2)N=C(c2ccccc2)c2ccccc21` (stereo not drawn) [Example 257, N-(3,4-Dichlorophenyl)-N'-(2,3-dihydro-1-methyl-2-oxo-5-phenyl-1H-1,4-benzodiazepin-3-yl)-urea], the IC50 ([1]; IC50 ^125 I-CCK Brain) is reported as 67 nM, the IC50 (CCK receptor (pancreas); [4]) is reported as 26 nM and the IC50 [2, 6] is reported as 48 nM.
Molecule `CN1C(=O)C(NC(=O)Nc2ccc(Cl)cc2Cl)N=C(c2ccccc2)c2ccccc21` (stereo not drawn) [Example 258, N-(2,4-Dichlorophenyl)-N'-(2,3-dihydro-1-methyl-2-oxo-5-phenyl-1H-1,4-benzodiazepin-3-yl)-urea] has an IC50 ([1]; IC50 ^125 I-CCK Brain) of 220 nM, an IC50 (CCK receptor (pancreas); [4]) of 3 nM and an IC50 [2, 6] of 60 nM.
With `CN1C(=O)C(NC(=O)Nc2ccc(F)cc2)N=C(c2ccccc2)c2ccccc21` (stereo not drawn) [Example 259, N-(2,3-Dihydro-1-methyl-2-oxo-5-phenyl-1H-1,4-benzodiazepin-3-yl)-N'-(4-fluorophenyl)-urea] the IC50 [1, 3] was 66 nM, the IC50 (CCK receptor (pancreas); [4]) was 46 nM and the IC50 [2, 5] was 14 nM.
`CN1C(=O)C(NC(=O)NC(C)(C)C)N=C(c2ccccc2)c2ccccc21` (stereo not drawn) [Example 260, N-(2,3-Dihydro-1-methyl-2-oxo-5-phenyl-1H-1,4-benzodiazepin-3-yl)-N'-(1,1-dimethylethyl)-urea] was tested, and the IC50 ([1]; IC50 ^125 I-CCK Brain) was 38000 nM, the IC50 (CCK receptor (pancreas); [4]) was 6800 nM and the IC50 [2, 6] was over 1000 nM.
With `C[C@@H](NC(=O)NC1N=C(c2ccccc2)c2ccccc2N(C)C1=O)c1ccccc1` (stereo partly drawn) [Example 261, N-(2,3-Dihydro-1-methyl-2-oxo-5-phenyl-1H-1,4-benzodiazepin-3-yl)-N'-((R)1-phenylethyl)-urea] the IC50 ([1]; IC50 ^125 I-CCK Brain) was 11000 nM, the IC50 (CCK receptor (pancreas); IC50 ^125 I-CCK Pancreas) was 430 nM and the IC50 [2, 5] was 3200 nM.
In the case of `CN1C(=O)C(NC(=O)NC2CCCCC2)N=C(c2ccccc2)c2ccccc21` (stereo not drawn) [Example 262, N-Cyclohexyl-N'-(2,3-dihydro-1-methyl-2-oxo-5-phenyl-1H-1,4-benzodiazepin-3-yl)-urea], the IC50 ([1]; IC50 ^125 I-CCK Brain) is reported as 3000 nM, the IC50 (CCK receptor (pancreas); [4]) is reported as 2400 nM and the IC50 [2, 6] is reported as 390 nM.
Molecule `CN1C(=O)C(NC(=O)Nc2cccc([N+](=O)[O-])c2)N=C(c2ccccc2)c2ccccc21` (stereo not drawn) [Example 264, N-(2,3-Dihydro-1-methyl-2-oxo-5-phenyl-1H-1,4-benzodiazepin-3-yl)-N'-(3-nitrophenyl)-urea] has an IC50 ([1]; IC50 ^125 I-CCK Brain) of 11 nM, an IC50 (CCK receptor (pancreas); [4]) of 34 nM and an IC50 [2, 6] of 6 nM.
`CN1C(=O)C(NC(=O)Nc2cccc(Cl)c2)N=C(c2ccccc2)c2ccccc21` (stereo not drawn) [Example 265, N-(3-Chlorophenyl)-N'-(2,3-dihydro-1-methyl-2-oxo-5-phenyl-1H-1,4-benzodiazepin-3-yl)urea] showed an IC50 ([1]; IC50 ^125 I-CCK Brain) of 9.8 nM, an IC50 (CCK receptor (pancreas); [4]) of 8.2 nM and an IC50 [2, 6] of 3.1 nM.
`COc1cccc(NC(=O)N[C@@H]2N=C(c3ccccc3)c3ccccc3N(C)C2=O)c1` [Example 266, (R)-N-(2,3-Dihydro-1-methyl-2-oxo-5-phenyl-1H-1,4-benzodiazepin-3-yl)-N'-(3-methoxyphenyl)-urea] showed an IC50 ([1]; IC50 ^125 I-CCK Brain) of 2.2 nM, an IC50 (CCK receptor (pancreas); [4]) of 600 nM and an IC50 [2, 5] of 1.3 nM.
For `COc1cccc(NC(=O)N[C@H]2N=C(c3ccccc3)c3ccccc3N(C)C2=O)c1` [Example 267, (S)-N-(2,3-Dihydro-1-methyl-2-oxo-5-phenyl-1H-1,4-benzodiazepin-3-yl)-N'-(3-methoxyphenyl)-urea], the IC50 ([1]; IC50 ^125 I-CCK Brain) was 290 nM, the IC50 (CCK receptor (pancreas); [4]) was 1.3 nM and the IC50 [2, 5] was 190 nM.
`COc1cccc(CC(=O)N[C@H]2N=C(c3ccccc3)c3ccccc3N(C)C2=O)c1` [Example 268, (S)-N-(2,3-Dihydro-1-methyl-2-oxo-5-phenyl-1H-1,4-benzodiazepin-3-yl)-3-methoxybenzeneacetamide] gave an IC50 [1, 3] of 2100 nM, an IC50 (CCK receptor (pancreas); IC50 ^125 I-CCK Pancreas) of 330 nM and an IC50 [2, 5] of 420 nM.
`COc1cccc(CC(=O)N[C@@H]2N=C(c3ccccc3)c3ccccc3N(C)C2=O)c1` [Example 269, (R)-N-(2,3-Dihydro-1-methyl-2-oxo-5-phenyl-1H-1,4-benzodiazepin-3-yl)-3-methoxybenzenacetamide] was tested, and the IC50 [1, 3] was 690 nM, the IC50 (CCK receptor (pancreas); IC50 ^125 I-CCK Pancreas) was 45000 nM and the IC50 [2, 5] was 450 nM.
`CN1C(=O)C(NC(=O)Nc2ccccc2[N+](=O)[O-])N=C(c2ccccc2)c2ccccc21` (stereo not drawn) [Example 270, N-(2,3-Dihydro-1-methyl-2-oxo-5-phenyl-1H-1,4-benzodiazepin-3-yl)-N'-(2-nitrophenyl)-urea] was tested, and the IC50 ([1]; IC50 ^125 I-CCK Brain) was 1200 nM, the IC50 (CCK receptor (pancreas); [4]) was 3 nM and the IC50 [2, 6] was 500 nM.
Work on `CN1C(=O)C(NC(=O)Nc2cccc(F)c2)N=C(c2ccccc2)c2ccccc21` (stereo not drawn) [Example 271, N-(2,3-Dihydro-1-methyl-2-oxo-5-phenyl-1H-1,4-benzodiazepin-3-yl)-N'-(3-fluorophenyl)-urea] yielded an IC50 ([1]; IC50 ^125 I-CCK Brain) of 54 nM, an IC50 (CCK receptor (pancreas); [4]) of 10 nM and an IC50 [2, 6] of 10 nM.
`CN1C(=O)C(NC(=O)Nc2cccc(Br)c2)N=C(c2ccccc2)c2ccccc21` (stereo not drawn) [Example 272, N-(3-Bromophenyl)-N'-(2,3-dihydro-1-methyl-2-oxo-5-phenyl-1H-1,4-benzodiazepin-3-yl)-urea] showed an IC50 ([1]; IC50 ^125 I-CCK Brain) of 5 nM, an IC50 (CCK receptor (pancreas); [4]) of 4.4 nM and an IC50 [2, 6] of 2.8 nM.
With `CN1C(=O)C(NC(=O)Nc2cccc3ccccc23)N=C(c2ccccc2)c2ccccc21` (stereo not drawn) [Example 273, N-(2,3-Dihydro-1-methyl-2-oxo-5-phenyl-1H-1,4-benzodiazepin-3-yl)-N'-1-naphthalenyl-urea] the IC50 [1, 3] was 79 nM, the IC50 (CCK receptor (pancreas); IC50 ^125 I-CCK Pancreas) was 8.6 nM and the IC50 [2, 5] was 57 nM.
`COc1cc(NC(=O)NC2N=C(c3ccccc3)c3ccccc3N(C)C2=O)cc(OC)c1` (stereo not drawn) [Example 274] showed an IC50 [1, 3] of 2300 nM, an IC50 (CCK receptor (pancreas); [4]) of 310 nM and an IC50 [2, 5] of 1600 nM.
For `COc1cccc(NC(=O)NC2N=C(c3ccccc3)c3ccccc3NC2=O)c1` (stereo not drawn) [Example 275, N-(2,3-Dihydro-2-oxo-5-phenyl-1H-1,4-benzodiazepin-3-yl)-N'-(3-methoxyphenyl)-urea], the IC50 ([1]; IC50 ^125 I-CCK Brain) was 110 nM, the IC50 (CCK receptor (pancreas); IC50 ^125 I-CCK Pancreas) was 20 nM and the IC50 [2, 6] was 120 nM.
Molecule `CN1C(=O)[C@@H](NC(=O)Nc2ccccc2Cl)N=C(c2ccccc2)c2ccccc21` [Example 276, (S)-N-(2,3-Dihydro-1-methyl-2-oxo-5-phenyl-1H-1,4-benzodiazepin-3-yl)-N'-(2-chlorophenyl)-urea] has an IC50 [1, 3] of 280 nM, an IC50 (CCK receptor (pancreas); IC50 ^125 I-CCK Pancreas) of 0.39 nM and an IC50 [2, 5] of 240 nM.
`CN1C(=O)C(NC(=S)Nc2ccccc2)N=C(c2ccccc2)c2ccccc21` (stereo not drawn) [Example 277, N-(2,3-Dihydro-1-methyl-2-oxo-5-phenyl-1H-1,4-benzodiazepin-3-yl)-N'-phenylthiourea] showed an IC50 [1, 3] of 860 nM, an IC50 (CCK receptor (pancreas); IC50 ^125 I-CCK Pancreas) of 18 nM and an IC50 [2, 5] of 2600 nM.
With `COc1ccccc1NC(=O)NC1N=C(c2ccccc2)c2ccccc2N(C)C1=O` (stereo not drawn) [Example 278, N-(2,3-Dihydro-1-methyl-2-oxo-5-phenyl-1H-1,4-benzodiazepin-3-yl)-N'-(2-methoxyphenyl)-urea] the IC50 [1, 3] was 1200 nM, the IC50 (CCK receptor (pancreas); [4]) was 600 nM and the IC50 [2, 5] was 1000 nM.
For `CC(C)(C)C(=O)OCOC(=O)CN1C(=O)C(NC(=O)c2cc3ccccc3[nH]2)N=C(c2ccccc2)c2ccccc21` (stereo not drawn) [Example 279, 1-Pivaloyloxymethyloxycarbonylmethyl-1,3-dihydro-3-(2-indolecarbonylamino)-5-phenyl-2H-1,4-benzodiazepin-2-one], the IC50 [1, 3] was 310 nM, the IC50 (CCK receptor (pancreas); IC50 ^125 I-CCK Pancreas) was 11 nM and the IC50 [2, 5] was 600 nM.
`COc1cccc(NC(=O)NC2N=C(c3ccccc3)c3ccccc3NC2=S)c1` (stereo not drawn) [Example 280, N-(2,3-Dihydro-5-phenyl-2-thioxo-1H-1,4-benzodiazepin-3-yl)-N'-(3-methoxyphenyl)-urea] was tested, and the IC50 ([1]; IC50 ^125 I-CCK Brain) was 970 nM, the IC50 (CCK receptor (pancreas); IC50 ^125 I-CCK Pancreas) was 15 nM and the IC50 [2, 6] was 250 nM.
